Values after ≈ are worked out from the molar mass of the structure shown. Like-named read-outs stand apart in the source and are kept apart here.
How the values were obtained:
hERG potassium channel = target: T1, hERG potassium channel (Homo sapiens, UniProt Q12809); test: FP-based hERG binding assay (Invitrogen kit)
T1 construct: purchased Invitrogen (kit); assay run at TCG Lifesciences Pvt; Ltd. India
Protocol: Supplementary Table 7. Results of cytotoxicity studies. […]
Cardiovascular hERG inhibition
Cardiovascular safety profile was entirely outsourced. hERG screening was performed at TCG
Lifesciences Pvt. Ltd. India with FP -based hERG binding assay (Invitrogen kit).

HUVEC = test: Metabolic activity assessment (CellTiter 96 Aqueous One), HUVEC; format: cell-based; details: Homo sapiens, 72 h treatment, mean ± SD
Protocol: (§1) Supplementary Table 7. Results of cytotoxicity studies.
(§2) Metabolic activity assessment
(§3) Cells of the HepG2 line ( ATCC® HB-8065™) and HUVEC ( ATCC® CRL-1730™) were cultured in Dulbecco’s Modified Eagle Medium (DMEM; Sigma-Aldrich, St. Louis, MO, USA) supplemented with 10% heat -deactivated FBS (Gibco, Grand Island/NY, USA), 2 mM L -glutamine, 100 U/mL penicillin, 100 µg/mL streptomycin (all from Sigma -Aldrich) in a humidified chamber at 37 °C and 5% CO2. The experiments were carried out on passages 7 - 9 for both cell lines. The tested compounds were dissolved in DMSO and further diluted in culture medium to a desired final concentration. […]
(§4) 10^4 cells/mL (100 µL/well) and after attachm ent treated with seven different concentration of the selected compounds or corresponding vehicle as control. The metabolic activity was assessed after 72 h treatment using the CellTiter 96 Aqueous One Solution Cell Proliferation Assay (Promega, Madison/WI, USA), in accordance with the manufacturer’s instructions .7 The absorbance was measured at 492 nm on an automated microplate reader BioTek Synergy HT (BioTek Instruments, Inc.). Data are presented as IC 50 value (mean ± SD) from two independent experiments , each conducted in duplicate or triplicate. IC 50 values were calculated by a non -linear regression model using Graph Pad Prism 7 software. […]

S. aureus (ATCC 29213) = test: Broth microdilution MIC, S. aureus; format: cell-based; details: Staphylococcus aureus, ATCC29213, 20 h, 37 °C
Protocol: (§5) Antimicrobial assays were performed by the broth microdilution method in 96-well plate format according to the Clinical and Laboratory Standards Institute guidelines[46] and European Committee on Antimicrobial Susceptibility Testing recommendations. First, bacterial suspensions of specific bacterial strains was prepared to obtain density equivalent to 0.5 McFarland turbidity standard, followed by dilution with cation-adjusted Mueller Hinton broth with TES (Thermo Fisher Scientific), to obtain a final inoculum of 10^5 colony-forming units/mL. Compounds were dissolved in DMSO and twofold dilutions were prepared, then inoculum was added and the mixture was incubated for 20 h at 37 °C. After incubation, the MIC values were read off by visual assessment as the lowest dilution of compound showing no turbidity. The MICs were determined against S. aureus (ATCC 29213), MRSA (NCTC12493), E. coli (ATCC 25922), E. coli D22, and E. coli N43 bacterial strains. Tetracycline was used as a positive control on every assay plate, displaying MICs of 0.5 and 1 μg/mL for S. aureus and E. coli, respectively.

E. coli (ATCC 25922) = test: Broth microdilution MIC, E. coli; format: cell-based; details: Escherichia coli, ATCC25922, 20 h, 37 °C
Protocol: as §5

S. aureus DNA gyrase [1] = target: T2, S. aureus DNA gyrase (Staphylococcus aureus, UniProt P20831); test: Gyrase Supercoiling High Throughput Plate Assay (fluorescence), S. aureus; format: biochemical; details: fluorescence-based high throughput plate assay
T2 construct: purchased Inspiralis (Norwich, UK)
Protocol: A Gyrase Supercoiling High Throughput Plate Assay kit, purchased from Inspiralis (Norwich. UK), was used to determine IC50 values of compounds on S. aureus and E. coli gyrase. […] Biotinylated oligonucleotide in wash buffer was immobilized onto the wells, and the excess oligonucleotide was washed off with wash buffer and ultrapure water. […] The reactions were stopped by adding the TF buffer (50 mM NaOAc (pH 4.7), 50 mM NaCl, and 50 mM MgCl2) to allow the triplex formation (biotin–oligonucleotide–plasmid) for an additional 30 min. Afterward, the unbound plasmid was washed off using TF buffer, and the solution of Promega Diamond dye in T10 buffer (10 mM Tris-HCl (pH 8.0), 1 mM EDTA) was added. […] Preliminary screening was performed at four inhibitor concentrations of 100, 10, 1, and 0.1 μM. […] IC50 was calculated using nonlinear regression-based fitting of inhibition curves using log [inhibitor] versus response-variable slope (four parameters)—symmetrical equation in the GraphPad Prism 6.0 software (GraphPad Software, La Jolla, CA, USA, www.graphpad.com). IC50 values represent the mean of two to four independent measurements.
Target sequence in this assay (P20831 whole entry): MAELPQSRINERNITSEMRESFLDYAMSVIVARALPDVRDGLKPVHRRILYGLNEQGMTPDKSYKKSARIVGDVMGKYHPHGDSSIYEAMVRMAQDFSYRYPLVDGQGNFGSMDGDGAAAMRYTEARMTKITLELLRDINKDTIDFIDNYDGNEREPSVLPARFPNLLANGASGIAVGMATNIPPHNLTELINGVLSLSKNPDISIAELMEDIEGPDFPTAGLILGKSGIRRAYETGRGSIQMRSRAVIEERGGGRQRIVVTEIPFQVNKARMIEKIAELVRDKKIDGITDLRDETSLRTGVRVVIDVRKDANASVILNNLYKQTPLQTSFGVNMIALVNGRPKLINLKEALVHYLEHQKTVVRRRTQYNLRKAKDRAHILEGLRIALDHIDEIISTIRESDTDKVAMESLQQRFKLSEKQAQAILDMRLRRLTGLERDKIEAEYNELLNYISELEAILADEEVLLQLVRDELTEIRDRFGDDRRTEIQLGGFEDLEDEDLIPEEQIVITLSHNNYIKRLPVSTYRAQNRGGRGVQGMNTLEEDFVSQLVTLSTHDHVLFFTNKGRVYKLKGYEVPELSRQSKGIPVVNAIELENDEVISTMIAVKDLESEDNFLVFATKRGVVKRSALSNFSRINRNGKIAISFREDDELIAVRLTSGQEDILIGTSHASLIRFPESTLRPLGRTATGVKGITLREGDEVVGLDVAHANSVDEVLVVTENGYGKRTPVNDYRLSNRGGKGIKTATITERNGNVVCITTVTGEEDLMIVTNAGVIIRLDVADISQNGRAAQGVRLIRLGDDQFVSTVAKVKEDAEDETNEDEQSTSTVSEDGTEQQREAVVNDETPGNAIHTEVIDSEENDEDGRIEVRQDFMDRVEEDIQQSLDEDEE
Target sequence in this assay (P0A0K8 whole entry partner): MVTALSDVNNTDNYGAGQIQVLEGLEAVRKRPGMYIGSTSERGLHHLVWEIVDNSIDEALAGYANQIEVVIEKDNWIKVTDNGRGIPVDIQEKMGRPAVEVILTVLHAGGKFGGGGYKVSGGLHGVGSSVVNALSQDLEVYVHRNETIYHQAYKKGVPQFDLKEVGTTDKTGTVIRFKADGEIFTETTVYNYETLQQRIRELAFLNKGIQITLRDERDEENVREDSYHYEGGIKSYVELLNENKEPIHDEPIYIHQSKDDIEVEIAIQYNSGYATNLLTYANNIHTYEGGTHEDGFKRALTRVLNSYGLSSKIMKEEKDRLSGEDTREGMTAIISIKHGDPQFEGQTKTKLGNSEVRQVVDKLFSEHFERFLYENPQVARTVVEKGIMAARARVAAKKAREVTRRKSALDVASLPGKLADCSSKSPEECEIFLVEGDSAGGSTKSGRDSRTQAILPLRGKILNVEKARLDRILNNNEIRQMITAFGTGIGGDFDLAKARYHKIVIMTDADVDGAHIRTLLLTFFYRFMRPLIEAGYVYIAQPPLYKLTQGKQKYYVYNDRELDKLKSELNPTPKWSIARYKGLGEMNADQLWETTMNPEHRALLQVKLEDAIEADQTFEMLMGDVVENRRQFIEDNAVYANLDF

HepG2 = test: Metabolic activity assessment (CellTiter 96 Aqueous One), HepG2; format: cell-based; details: Homo sapiens, 72 h treatment, mean ± SD
Protocol: as §1, §2, §3, §4

S. aureus DNA gyrase [2] = target: T2, S. aureus DNA gyrase; test: Gel-based S. aureus Gyrase Supercoiling assay (Inspiralis); format: biochemical
Protocol: gyrase supercoiling assays
In all experiments, the activity of the enzyme was determined prior to the testing of the compounds and 1 U defined as the amount of enzyme required to fully supercoil the substrate. This amount of enzyme was used in all subsequent assays. The final DMSO concentration in all the reactions was 1% (v/v). Compounds were serially diluted in DMSO and added to the reaction before the addition of the […]
Staphylococcus aureus gyrase supercoiling assay
1 U of DNA gyrase was incubated with 0.5 μg of relaxed pBR322 DNA in a 30 μl reaction at 37 °C for 30 min under the following conditions: 40 mM HEPES·KOH (pH 7.6), 10 mM magnesium acetate, 10 mM DTT, 2 mM ATP, 500 mM potassium glutamate and 0.05 mg/ml BSA. Each reaction was stopped by the addition of 30 μl chloroform/iso-amyl alcohol (24:1) and 20 μl Stop Dye (40% sucrose, 100 mM Tris.HCl ( pH 7.5), 10 mM EDTA, 0.5 μg/ml bromophenol blue), before being loaded on a 1.0% TAE (Tris.acetate […], EDTA […]). Gels run at 70V for 3 hours.
Data acquisition and analysis
Bands were visualised by ethidium staining for 10 min, destained for 10 min in water and bands were analysed by gel documentation equipment (Syngene, Cambridge, UK) and quantitated using Syngene Gene Tools software. Raw gel data (fluorescent band volumes) collected from Syngene, GeneTools gel analysis software were converted to a % of the 100% control (the fully supercoiled or relaxed […]
global curve fit non-linear regression tool was used to calculate IC50 data using the following equation:
Equation: Exponential Decay, Single, 2 Parameter f = ae−bx
(1 picture or pasted object on this page, not shown here)
Target sequence in this assay (P20831 whole entry): as the sequence (P20831 whole entry) above
Target sequence in this assay (P0A0K8 whole entry, further chain): as the sequence (P0A0K8 whole entry partner) above

MRSA (NCTC12493) = test: Broth microdilution MIC, MRSA; format: cell-based, S. aureus; details: Staphylococcus aureus, 20 h, 37 °C
Protocol: as §5

T1 sequence (Q12809 whole entry): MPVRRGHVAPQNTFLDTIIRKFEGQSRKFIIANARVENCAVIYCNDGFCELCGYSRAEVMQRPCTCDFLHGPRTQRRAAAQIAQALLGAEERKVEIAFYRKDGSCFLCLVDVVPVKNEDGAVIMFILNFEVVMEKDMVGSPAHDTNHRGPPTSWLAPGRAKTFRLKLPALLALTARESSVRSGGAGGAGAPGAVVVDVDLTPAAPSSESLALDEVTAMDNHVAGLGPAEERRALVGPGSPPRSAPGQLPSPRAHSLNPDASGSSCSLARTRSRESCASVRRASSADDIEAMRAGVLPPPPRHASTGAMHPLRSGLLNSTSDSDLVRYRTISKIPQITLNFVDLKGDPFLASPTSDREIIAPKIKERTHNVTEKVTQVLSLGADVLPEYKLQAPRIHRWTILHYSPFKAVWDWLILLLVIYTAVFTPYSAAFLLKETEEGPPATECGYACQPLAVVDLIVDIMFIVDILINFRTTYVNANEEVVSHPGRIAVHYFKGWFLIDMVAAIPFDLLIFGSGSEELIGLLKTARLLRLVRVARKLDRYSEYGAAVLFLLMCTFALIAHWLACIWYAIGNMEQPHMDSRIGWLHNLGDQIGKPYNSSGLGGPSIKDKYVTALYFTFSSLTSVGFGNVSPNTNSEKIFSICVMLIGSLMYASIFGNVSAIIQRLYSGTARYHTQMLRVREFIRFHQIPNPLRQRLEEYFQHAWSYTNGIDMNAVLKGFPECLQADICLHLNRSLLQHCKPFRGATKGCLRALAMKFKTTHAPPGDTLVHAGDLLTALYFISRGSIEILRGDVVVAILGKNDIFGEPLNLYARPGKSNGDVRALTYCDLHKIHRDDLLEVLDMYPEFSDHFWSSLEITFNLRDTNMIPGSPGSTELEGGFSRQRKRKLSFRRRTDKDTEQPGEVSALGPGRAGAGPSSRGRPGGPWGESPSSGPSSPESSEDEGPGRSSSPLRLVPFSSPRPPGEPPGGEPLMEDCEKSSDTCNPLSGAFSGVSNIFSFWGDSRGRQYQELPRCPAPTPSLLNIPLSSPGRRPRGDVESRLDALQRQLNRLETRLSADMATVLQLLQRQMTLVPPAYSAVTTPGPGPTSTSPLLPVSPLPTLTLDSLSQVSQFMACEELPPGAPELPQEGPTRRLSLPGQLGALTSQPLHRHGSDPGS

Structure (SMILES) | IC50 (hERG potassium channel) [µM] | IC50 (HUVEC) [µM] | IC50 (S. aureus DNA gyrase [1]) [µM] | IC50 (HepG2) [µM] | further results
COc1ccc2nccc(CCN3CCC(NCc4ccc(C(N)=O)cc4)CC3)c2n1 [Compound 8] | 13.4 | > 50 | – | – | –
CN(C)[C@@H]1C(O)=C(C(N)=O)C(=O)[C@@]2(O)C(O)=C3C(=O)c4c(O)cccc4[C@@](C)(O)[C@H]3C[C@@H]12 [Tetracycline, reference compound] | – | – | – | – | MIC (S. aureus (ATCC 29213)): 0.5 µg/mL (≈ 1.13 µM); MIC (E. coli (ATCC 25922)): 1 µg/mL (≈ 2.25 µM)
COc1ccc2nccc(CCN3CCC(NCc4ccccc4)CC3)c2n1 [Compound 2] | 1.05 | 54.1 ± 3.45 | 1.02 | 17.7 ± 2.16 | –
COc1ccc2nccc(CCN3CCC(NCc4ccc(Cl)cc4)CC3)c2n1 [Compound 4] | 0.27 | 27 ± 0.38 | – | 10.16 ± 0.1 | –
COc1ccc2nccc(CCN3CCC(NCc4ccc(Br)cc4)CC3)c2n1 [Compound 5] | 0.29 | 25.42 ± 0.01 | – | 9.37 ± 0.07 | IC50 (S. aureus DNA gyrase [2]; IC50 S. aureus DNA gyrase supercoiling, gel-based assay): 0.007 µM; IC50 (S. aureus DNA gyrase [2]; S. aureus gyrase supercoiling IC50 Assay 1, gel-based assay, assay 1): 0.007 µM; IC50 (S. aureus DNA gyrase [2]; S. aureus gyrase supercoiling IC50 Assay 2, gel-based assay, assay 2): 0.007 µM; IC50 (S. aureus DNA gyrase [2]; S. aureus gyrase supercoiling IC50 Average, gel-based assay, average of assay 1 and 2): 0.007 µM; IC50 (S. aureus DNA gyrase [2]; S. aureus inhibition (DNA supercoiling IC50), as quoted in point-by-point response): 0.007 µM; IC50 (S. aureus DNA gyrase [2]; S. aureus inhibition (DNA supercoiling IC50), as quoted in reviewer report): 0.007 µM
COc1ccc2nccc(CCN3CCC(NCc4ccc(I)cc4)CC3)c2n1 [Compound 6] | – | 19 ± 0.85 | – | 8.47 ± 0.09 | IC50 (hERG potassium channel; human, FP-based hERG binding assay kit (Invitrogen)): 0.18 µM; IC50 (S. aureus DNA gyrase [2]; read-out: S. aureus gyrase supercoiling IC50 Assay 1, gel-based assay, assay 1): 0.013 µM; IC50 (S. aureus DNA gyrase [2]; read-out: S. aureus gyrase supercoiling IC50 Assay 2, gel-based assay, assay 2): 0.009 µM
COc1ccc2nccc(CCN3CCC(NCc4ccc(N(C)C)cc4)CC3)c2n1 [Compound 9] | 2.11 | 23.85 ± 0.09 | 0.067 | 10.03 ± 0.06 | MIC (MRSA (NCTC12493)): 0.25 µg/mL (≈ 0.596 µM); MIC (S. aureus (ATCC 29213)): 0.125 µg/mL (≈ 0.298 µM)
COc1ccc2nccc(CCN3CCC(NCc4ccc(F)cc4)CC3)c2n1 [Compound 3] | 0.59 | > 50 | 0.55 | 12.7 ± 0.21 | –
